The results in this text go back to ChEMBL document CHEMBL6103576, “Design, synthesis, and antiviral activity of fragmented-lapatinib aminoquinazoline analogs towards SARS-CoV-2 inhibition” (Eur J Med Chem, 2025).

Where only a bound is given, the exact number is not on record here.

For orientation: IC50 means the concentration that inhibits the measured activity by half. A word on the inhibition: it is the percentage by which the read-out fell short of the control. As usually defined, the EC50 is the concentration that produces a half-maximal response. As usually defined, the CC50 is the concentration giving 50% cytotoxicity.

A short description of data set [1]: Cytotoxicity against African green monkey Vero E6 cells assessed as cell viability at 50 uM incubated for 48 hrs by CellTiter96 assay relative to control. The format is toxicity, cell-based, Vero C1008. The following applies: chlorocebus sabaeus, read-out: Activity.
Data set [2] concerns the target Replicase polyprotein 1ab (Severe acute respiratory syndrome coronavirus 2, UniProt P0DTD1). Nature of the data set: Inhibition of SARS-CoV-2 MPro using E(EDAS)TSAVLQSGFRK(DABCYL) as substrate by fluorescence based analysis.
Data set [3] concerns the target Replicase polyprotein 1ab (Severe acute respiratory syndrome coronavirus 2) (UniProt P0DTD1). Nature of the data set: Inhibition of SARS-CoV-2 MPro using E(EDAS)TSAVLQSGFRK(DABCYL) as substrate at 100 uM by fluorescence based analysis relative to control.
For data set [4], the system named is SARS-CoV-2. Nature of the data set: Antiviral activity against SARS-CoV-2 infected in Vero E6 cells assessed as inhibition of viral replication at 50 uM measured for 72 hrs relative to control. Particulars: Severe acute respiratory syndrome coronavirus 2, Vero C1008. In kind it is functional.
Data set [5] relates to SARS-CoV-2. Nature of the data set: Antiviral activity against SARS-CoV-2 infected in Vero E6 cells assessed as inhibition of viral replication at 10 uM measured for 72 hrs relative to control. In kind it is functional. The following applies: Severe acute respiratory syndrome coronavirus 2, Vero C1008.
Data set [6] concerns Vero C1008. Nature of the data set: Cytotoxicity against African green monkey Vero E6 cells assessed as cell viability at 10 uM incubated for 48 hrs by CellTiter96 assay. The format is toxicity, cell-based. The following applies: chlorocebus sabaeus, vero c1008, 48 h.
The test system of data set [7] is SARS-CoV-2. Nature of the data set: Antiviral activity against SARS-CoV-2 infected in Vero E6 cells assessed as inhibition of viral replication measured for 72 hrs. The format is functional, organism-based. Particulars: Severe acute respiratory syndrome coronavirus 2, Vero C1008, 72 h.
The nature of data set [8]: Cytotoxicity against African green monkey Vero E6 cells assessed as cell viability incubated for 48 hrs by CellTiter96 assay. The format is toxicity, cell-based, Vero C1008. The following applies: chlorocebus sabaeus.

Regarding `Clc1cc(Nc2ncnc3ccccc23)ccc1OCc1cccc(Br)c1`, the viability at 48 h, 50 µM in data set [1] stood at 28.1%. The midpoint of inhibition in data set [2], the IC50, lay at 4.38 µM. In data set [3], this molecule came in with an inhibition of 82%. The inhibition at 50 µM in data set [4] amounted to 68.4%.
For `O=C(Nc1ccccc1F)c1ccc(COc2ccc(Nc3ncnc4ccccc34)cc2Cl)cc1`, the viability at 48 h, 50 µM in data set [1] was 0%. The molecule further registered an inhibition in data set [3] of 66.4%. The inhibition at 50 µM in data set [4] came to 86.7%.
As to `O=C(Nc1cccc(I)c1)c1ccc(COc2ccc(Nc3ncnc4ccccc34)cc2Cl)cc1`, the viability at 48 h, 50 µM in data set [1] came to 0%. In data set [2], this molecule registered a half-inhibitory concentration (IC50) of 9.12 µM. The molecule also gave an inhibition in data set [3] of 87.7%. For the same molecule, in data set [4], the inhibition at 50 µM stood at 94.5%.
In the case of `O=C(Nc1ccc(Cl)cc1)c1ccc(COc2ccc(Nc3ncnc4ccccc34)cc2Cl)cc1`, the viability at 48 h, 50 µM in data set [1] came to 0%. The IC50 in data set [2] is 4.83 µM. The same molecule gave an inhibition in data set [3] of 73.2%. In addition, the inhibition at 50 µM in data set [4] worked out at 82.2%.
Turning to `CCC(CC)COC(=O)[C@H](C)N[P@](=O)(OC[C@H]1OC(C#N)(c2ccc3c(N)ncnn23)[C@H](O)[C@@H]1O)Oc1ccccc1` (some centres undefined), in data set [5], the inhibition at 10 µM is 99.9%. In addition, the Activity entry in data set [6] was “Non-toxic”.
`Clc1cc(Nc2ncnc3ccccc23)ccc1OCc1ccccc1`: the viability at 48 h, 50 µM in data set [1] came to 49.3%. Moreover, the IC50 in data set [2] amounted to 3.97 µM. This molecule registered an inhibition in data set [3] of 74.6%. Moreover, in data set [4], the inhibition at 50 µM was 25.1%.
On to `COc1cccc(NC(=O)c2ccc(COc3ccc(Nc4ncnc5ccccc45)cc3Cl)cc2)c1`, for which, in data set [1], the viability at 48 h, 50 µM is 22.6%. This molecule had an inhibition in data set [3] of 49.3%. The inhibition at 50 µM in data set [4] is 82.2%.
Regarding `Fc1cccc(COc2ccc(Nc3ncnc4ccccc34)cc2Cl)c1`, the viability at 48 h, 50 µM in data set [1] came out at 44.8%. In addition, the IC50 in data set [2] worked out at 3.18 µM. Further, in data set [3], the inhibition turned out to be 82.6%. The inhibition at 50 µM in data set [4] was 43.7%.
For `O=C(Nc1ccccc1)c1cccc(COc2ccc(Nc3ncnc4ccccc34)cc2Cl)c1`, the viability at 48 h, 50 µM in data set [1] turned out to be 1%. The molecule also yielded an IC50 in data set [2] of 3.75 µM. The same molecule had an inhibition in data set [3] of 98%. Further, the inhibition at 50 µM in data set [4] was 68.4%.
On to `O=C(Nc1cccc(I)c1)c1cccc(COc2ccc(Nc3ncnc4ccccc34)cc2Cl)c1`, for which the viability at 48 h, 50 µM in data set [1] amounted to 21%. Further, in data set [3], the inhibition is 55.7%. Moreover, in data set [4], the inhibition at 50 µM was found to be 99%.
`O=C(Nc1cccc(C(F)(F)F)c1)c1ccc(COc2ccc(Nc3ncnc4ccccc34)cc2Cl)cc1`: in data set [1], the viability at 48 h, 50 µM was 17.3%. Further, the inhibition in data set [3] came to 55.7%. In addition, the inhibition at 50 µM in data set [4] amounted to 90%.
As to `O=C(Nc1ccccc1Cl)c1ccc(COc2ccc(Nc3ncnc4ccccc34)cc2Cl)cc1`, in data set [1], the viability at 48 h, 50 µM came to 3.64%. In addition, the inhibition in data set [3] was found to be 30.8%. Further, the inhibition at 50 µM in data set [4] worked out at 57.7%.
For the molecule `CS(=O)(=O)CCNCc1ccc(-c2ccc3ncnc(Nc4ccc(OCc5cccc(F)c5)c(Cl)c4)c3c2)o1` [LAPATINIB], the viability at 48 h, 50 µM in data set [1] worked out at 71.1%. Besides, the inhibition in data set [3] amounted to 97.1%. In addition, the inhibition at 10 µM in data set [5] was 58.8%. In addition, in data set [4], the inhibition at 50 µM was 92.7%.
As for `COc1cccc(NC(=O)c2cccc(COc3ccc(Nc4ncnc5ccccc45)cc3Cl)c2)c1`, the viability at 48 h, 50 µM in data set [1] turned out to be 8.66%. Besides, in data set [4], the inhibition at 50 µM worked out at 92.7%.
On to `O=C(Nc1ccc(Cl)cc1)c1cccc(COc2ccc(Nc3ncnc4ccccc34)cc2Cl)c1`, for which the viability at 48 h, 50 µM in data set [1] came to 9.39%. The inhibition in data set [3] came to 69.5%. The inhibition at 50 µM in data set [4] amounted to 24.9%.
On the same counts, the results for `O=C(Nc1ccccc1Cl)c1cccc(COc2ccc(Nc3ncnc4ccccc34)cc2Cl)c1` are 38%, 53% and 95.9%.
Turning to `O=C(Nc1cccc(C(F)(F)F)c1)c1cccc(COc2ccc(Nc3ncnc4ccccc34)cc2Cl)c1`, the viability at 48 h, 50 µM in data set [1] worked out at 26.6%. Further, the inhibition at 50 µM in data set [4] was 99%.
On to `O=C(Nc1ccccc1F)c1cccc(COc2ccc(Nc3ncnc4ccccc34)cc2Cl)c1`, for which, in data set [1], the viability at 48 h, 50 µM turned out to be 13.6%. The EC50 in data set [7] turned out to be 1.1 µM. The same molecule registered an inhibition in data set [3] of 68.6%. In data set [5], the inhibition at 10 µM turned out to be 82.2%. For the same molecule, in data set [4], the inhibition at 50 µM was found to be 96.9%. Moreover, in data set [8], the CC50 at 48 h is > 100 µM.
Take `O=C(Nc1ccccc1)c1ccc(COc2ccc(Nc3ncnc4ccccc34)cc2Cl)cc1`: the viability at 48 h, 50 µM in data set [1] is 8.05%. In addition, in data set [3], the inhibition came out at 66.3%. Moreover, the inhibition at 50 µM in data set [4] worked out at 0%.
